test: Agonist activity at VDR in human HL60 cells assessed as induction of cell differentiation by measuring increase in NBT positive cells by Wright staining based microscopic method

Compound	EC50
CCn1c(C(=O)NCCCO)ccc1C(CC)(CC)c1ccc(C#CC(O)(CC)CC)c(C)c1	137 nM
CCn1cc(C(CC)(CC)c2ccc(C#CC(O)(CC)CC)c(C)c2)cc1C(=O)N[C@@H](C)CO	7.3 nM
CCN(CC)CCNC(=O)c1ccc(C(CC)(CC)c2ccc(C#CC(O)(CC)CC)c(C)c2)n1CC	10 nM
CCN(CC)CCNC(=O)c1cc(C(CC)(CC)c2ccc(C#CC(O)(CC)CC)c(C)c2)cn1CC	7 nM
CCN(CC)CCNC(=O)c1ccc(C(CC)(CC)c2ccc(OCC(O)C(C)(C)C)c(C)c2)n1CC (stereo not drawn)	6.5 nM
CCn1c(C(=O)NCCC(=O)OC)ccc1C(CC)(CC)c1ccc(C#CC(O)(CC)CC)c(C)c1	> 50 nM
CCN(CC)CCCNC(=O)c1ccc(C(CC)(CC)c2ccc(C#CC(O)(CC)CC)c(C)c2)n1CC	69 nM
CCn1c(C(=O)NCc2ccc(OC)cc2)ccc1C(CC)(CC)c1ccc(C#CC(O)(CC)CC)c(C)c1	> 50 nM
C#CCCOC(=O)c1ccc(C(CC)(CC)c2ccc(C#CC(O)(CC)CC)c(C)c2)n1CC	> 50 nM
CCCCC(=O)c1ccc(C(CC)(CC)c2ccc(C#CC(O)(CC)CC)c(C)c2)n1CC	> 50 nM
CCn1c(C(=O)NCC(=O)O)ccc1C(CC)(CC)c1ccc(C#CC(O)(CC)CC)c(C)c1	9.4 nM
CCn1c(C(=O)N[C@H](C(=O)O)C(C)C)ccc1C(CC)(CC)c1ccc(C#CC(O)(CC)CC)c(C)c1	18 nM
CCn1c(C(=O)NCCC(=O)O)ccc1C(CC)(CC)c1ccc(C#CC(O)(CC)CC)c(C)c1	293 nM
CCn1cc(C(CC)(CC)c2ccc(C#CC(O)(CC)CC)c(C)c2)cc1C(=O)NCC(=O)OC	288 nM
CCn1cc(C(CC)(CC)c2ccc(C#CC(O)(CC)CC)c(C)c2)cc1C(=O)NCCN(C)C	19 nM
CCn1cc(C(CC)(CC)c2ccc(C#CC(O)(CC)CC)c(C)c2)cc1C(=O)NCCCN(C)C	142 nM
CCn1cc(C(CC)(CC)c2ccc(C#CC(O)(CC)CC)c(C)c2)cc1C(=O)OCCO	13 nM
CCn1cc(C(CC)(CC)c2ccc(C#CC(O)(CC)CC)c(C)c2)cc1C(=O)NCC(=O)O	54 nM
CCn1cc(C(CC)(CC)c2ccc(C#CC(O)(CC)CC)c(C)c2)cc1C(=O)NCCC(=O)O	> 50 nM
CCn1cc(C(CC)(CC)c2ccc(C#CC(O)(CC)CC)c(C)c2)cc1C(=O)N[C@@H](C(=O)O)C(C)C	68 nM
CCn1c(C(=O)On2nnc3ccccc32)ccc1C(CC)(CC)c1ccc(C#CC(O)(CC)CC)c(C)c1	> 50 nM
CCCCC(=O)c1cc(C(CC)(CC)c2ccc(C#CC(O)(CC)CC)c(C)c2)cn1CC	> 50 nM
CCn1cc(C(CC)(CC)c2ccc(C#CC(O)(CC)CC)c(C)c2)cc1C(=O)N[C@H](C(=O)O)C(C)C	13 nM

— BindingDB's records for doi:10.1016/j.bmcl.2017.01.084 (China Pharmaceutical University, 2017)
